According to patent US11679099B2, “Use of HIF-2α inhibitors for treating chondrosarcoma, or preventing recurrence and metastasis thereof” (SEOUL NATIONAL UNIVERSITY R&DB FOUNDATION, priority 2020, dated 2023):
Entries after “also recorded” stand apart in the source; their conditions may differ.

Key:
[1] = system: SW1353 tumors; assay: Adjuvant chemotherapy in orthotopic chondrosarcoma xenograft model; assay type: in vivo, athymic nude mice (BALB/c nu/nu); details: mice, i.p., 2 mg/kg cisplatin and/or 20 mg/kg TC-S7009, twice weekly for four weeks
Source text: FIG. 5G is a schematic diagram of combination chemotherapy with TC-S7009. Mice were intraperitoneally injected 8 times with DMSO, cisplatin, TC-S7009, or cisplatin plus TC-S7009, twice a week from two weeks following the orthotopic xenograft (n=5).
Mice and experimental systems. Female athymic nude mice (BALB/c nu/nu, 5 weeks old) were purchased from Daehan-Biolink Co. and housed in individually ventilated cages. Mice were maintained under pathogen-free conditions. Food and water were provided after their sterilization. For in vivo experiments, at least five mice per experimental condition were used. Animals were randomly allocated to each experimental group, and the treatment allocation was blinded. In the orthotopic injection model, SW1353 cells were trypsinized and resuspended in PBS after centrifugation. The number of cells was adjusted to 1×10^6 cells per 25 μl. For SW1353 cells that stably overexpressed eGFP or HIF-2α, cell number was adjusted to 1×10^5 cells per 25 μl. Cells were mixed with 25 μl of Geltrex (Thermo Fisher Scientific, Geltrex™ LDEV-Free Reduced Growth Factor Basement Membrane Matrix). Before the procedure, mice were anesthetized. Skin was incised using a scalpel, and a single 0.35-mm diameter hole was drilled through the cartilage of the upper right tibia with the aid of sterile H-files (MANI, 28 mm #70). Subsequently, 10 μl of cell mixture was slowly injected with a 30-gauge microsyringe needle through the hole. The hole was sealed using surgical wax, and the surgery site was extensively rinsed with sterile PBS to wash out any spilled cell mixture. As the last step of the surgical procedure, the cutaneous wound was sutured. After the chosen experimental periods, mice were sacrificed, and total hindlimbs were dissected. For lung specimens, PBS was instilled through the trachea, and all specimens were processed for histomorphometric and immunohistochemical analysis. For the adjuvant chemotherapy studies, two weeks after the orthotopic injection of chondrosarcoma cells, mice were injected intraperitoneally with or without 2 mg/kg cisplatin in the presence or absence of 20 mg/kg TC-S7009 (Tocris) dissolved in Kolliphor EL (castor oil, 10% v/v, Sigma Aldrich, C5135). Vehicle solution was composed of DMSO, PBS, and Kolliphor EL (10% v/v). Chemotherapy cocktails were administered to mice twice weekly for four weeks.

[2] = system: SW1353 cells; assay: Apoptosis analysis, Annexin-V/PI flow cytometry; assay type: cell-based, human; details: 10 μM TC-S7009 pretreatment 48 h and/or 5 μg/ml cisplatin 24 h
Protocol: Drug Interaction Studies. For analysis of combination index (CI), SW1353 cells were pretreated with vehicle, 10 μM Nutlin-3a, 10 μM ABT-888, or 10 μM TC-S7009 for 48 h and additionally treated with 0.2, 0.5, 1, 2, or 5 μg/ml cisplatin or left untreated for 72 h. Cell viability was measured by the MTT assay. CI was calculated using the Compusyn software version 1.0, and synergistic effects were determined by the Chou-Talalay method (Chou T C. Drug Combination Studies and Their Synergy Quantification Using the Chou-Talalay Method. Cancer Res. 2010; 70(2):440-446). Drug combination at a non-constant ratio was used to calculate CI. For apoptosis analysis, SW1353 cells were pretreated with vehicle, 10 μM Nutlin-3a, 10 μM ABT-888, or 10 μM TC-S7009 for 48 h and additionally treated with 5 μg/ml cisplatin for 24 h. Subsequently, cells were stained with the Annexin V-FITC Apoptosis Detection Kit (Sigma Aldrich, APOAF) according to manufacturer's protocol. Flow cytometry analysis was performed on a FACSCanto II flow cytometer (BD Biosciences).

[3] = system: SW1353 cells; assay: Migration assay; assay type: cell-based, human; details: 10 μM TC-S7009 vs DMSO
Source text: (§1) (A) SW1353 cells were co-transfected with pcDNA3 or pcDNA3-EPAS1 and the HRE containing reporter plasmid in the absence or presence of different doses of TC-S7009. HRE reporter activity was normalized to Renilla luciferase activity (n=5). (B) Trypan blue exclusion assay to test the effect of TC-S7009 on cell viability of SW1353 cells (n=3). (C) Colony formation assay of SW1353 cells in the absence or presence of different doses of TC-S7009. The number of colonies counted using the ImageJ software (n=5). (D) Migration assay performed using SW1353 cells treated with DMSO or 10 μM TC-S7009. Representative images are shown (Left), and the relative area of migration (Right) was determined using the Image-Pro Premier software (n=6). (Scale bar, 200 μm.) Values indicate the mean±SEM, ***P<0.001, N.S., not significant, ANOVA (A-C) and Student's t test (D). P values; N.S.=non-significant, ***P<0.001. HRE=hypoxia response element; P=P value.
Migration assay. SW1353 and OUMS-27 cells were cultured in a 6-well plate at a density of 5×10^5 cells per well. When cells achieved 90% confluence, a wound was made with a sterile yellow tip. Cells were washed with PBS three times and incubated in fresh media with 1% FBS for 36 h. Every 12 h, randomly selected fields were captured by a digital camera under a microscope.

[4] = system: SW1353 cells; assay: Gelatin degradation assay; assay type: cell-based, human; details: 10 μM TC-S7009 vs DMSO
Protocol: Gelatin degradation assay. SW1353 cells were seeded on coverslips coated with Oregon Green 488-conjugated gelatin (Life Technologies) at 4×10^4 cells per well. Briefly, coverslips were treated with 50 μg/ml poly-D-Lysine (Corning) for 20 min followed by 0.5% glutaraldehyde (Junsei Chemical) for 15 min on ice. Treated coverslips were coated at 37° C. with pre-warmed 200 μg/ml Oregon Green 488-conjugated gelatin for 10 min in the dark, treated with 5 mg/ml NaBH4 for 15 min, and extensively washed with 70% ethanol and PBS. Cells were incubated for 18 h after seeding. For imaging gelatin degradation, cells were fixed with 50% methanol (v/v) and 10% acetic acid (v/v) solution for 10 min and stained with DAPI. For each coverslip, three fields were imaged at 20× magnification using a fluorescence microscope (EVOS FL Cell Imaging System, Thermo Fisher Scientific). To quantify gelatin degradation, the area of degradation in each field was measured by color-thresholding, using the ImageJ software.

[5] = target: T1, HIF-2α (Homo sapiens, UniProt Q99814); assay: HRE reporter gene (luciferase) assay; assay type: cell-based; details: SW1353 cells co-transfected with pcDNA3-EPAS1 and HRE reporter; different doses of TC-S7009, 24 h
T1 construct: host or cells: SW1353 cells
T1 sequence (Q99814 whole entry): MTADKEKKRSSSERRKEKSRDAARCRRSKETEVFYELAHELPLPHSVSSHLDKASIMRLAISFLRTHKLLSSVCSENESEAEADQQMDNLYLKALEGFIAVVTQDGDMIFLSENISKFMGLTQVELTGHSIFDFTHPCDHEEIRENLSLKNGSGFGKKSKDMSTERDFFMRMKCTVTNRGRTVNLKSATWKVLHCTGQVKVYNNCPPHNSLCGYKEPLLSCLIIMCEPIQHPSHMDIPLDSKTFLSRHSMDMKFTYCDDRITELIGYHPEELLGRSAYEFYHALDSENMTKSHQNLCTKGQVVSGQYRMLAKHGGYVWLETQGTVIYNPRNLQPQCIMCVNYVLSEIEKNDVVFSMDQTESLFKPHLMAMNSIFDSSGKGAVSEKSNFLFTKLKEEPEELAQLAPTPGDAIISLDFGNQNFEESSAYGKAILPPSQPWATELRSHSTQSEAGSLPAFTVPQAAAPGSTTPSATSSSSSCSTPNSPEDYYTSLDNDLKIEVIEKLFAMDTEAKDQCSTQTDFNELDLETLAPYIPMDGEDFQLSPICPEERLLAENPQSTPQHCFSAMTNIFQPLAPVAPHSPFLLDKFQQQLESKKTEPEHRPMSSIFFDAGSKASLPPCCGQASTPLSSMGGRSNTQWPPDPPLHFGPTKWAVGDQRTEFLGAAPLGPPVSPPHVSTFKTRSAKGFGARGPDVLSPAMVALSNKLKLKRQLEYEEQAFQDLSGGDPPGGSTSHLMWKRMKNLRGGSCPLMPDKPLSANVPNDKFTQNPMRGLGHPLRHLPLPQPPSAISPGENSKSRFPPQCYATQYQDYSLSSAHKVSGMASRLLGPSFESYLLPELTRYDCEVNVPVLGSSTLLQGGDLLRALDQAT
Protocol: (A) SW1353 cells were co-transfected with pcDNA3 or pcDNA3-EPAS1 and the HRE containing reporter plasmid in the absence or presence of different doses of TC-S7009. HRE reporter activity was normalized to Renilla luciferase activity (n=5). […] (Scale bar, 200 μm.) Values indicate the mean±SEM, ***P<0.001, N.S., not significant, ANOVA (A-C) and Student's t test (D).
Luciferase assay. HIF-2α activity was determined by reporter gene assay. SW1353 cells were transfected with 1 μg of a reporter vector containing hypoxia responsive element repeats. The thymidine kinase promoter-Renilla luciferase reporter plasmid (pRL-TK) was used as a control for measuring transfection efficiency. […] Twenty-four hours after transfection, cells were treated with TC-S7009 for an additional 24 h. Luciferase activity was measured using luciferin and normalized by Renilla luciferase activity.

[6] = system: SW1353 cells; assay: Colony formation assay; assay type: cell-based, human; details: 10 μM or different doses of TC-S7009 vs DMSO
Protocol: FIG. 5D is the results of colony formation (P<0.001, n=5) assays using SW1353 cells treated with DMSO or 10 μM TC-S7009 assay using SW1353 cells treated with DMSO or 10 μM TC-S7009. The representative images and quantification results were shown.
as §1
Colony formation assay. SW1353 cells were suspended in DMEM supplied with 10% FBS and seeded in 6-well plates; 1×10^3 and 500 cells were seeded in each well for the knockdown and overexpression experiments, respectively. […]

[7] = system: SW1353 cells; assay: Trypan blue exclusion assay (cell viability); assay type: cell-based, human
Source text: as §1

[8] = system: SW1353 cells; assay: Sphere formation assay; assay type: cell-based, human; details: 10 μM TC-S7009 vs DMSO
Protocol: FIG. 5C is the results of sphere formation (n=3) assays using SW1353 cells treated with DMSO or 10 μM TC-S7009 assay using SW1353 cells treated with DMSO or 10 μM TC-S7009. The representative images were shown and the diameter of the spheres were measured. Box-whisker plot were used to present the data. Scale Bar=200 μm.
Sphere formation assay. SW1353 and OUMS-27 cells were suspended in DMEM-F12 medium supplemented with 2% of B27 supplement (Thermo Fisher Scientific), 20 ng/ml EGF (Invitrogen), and 20 ng/ml basic fibroblast growth factor (bFGF; Peprotech). For experiments using SW1353 cells overexpressing eGFP or HIF-2α, cells were suspended in DMEM-F12 medium in the absence of the above supplements. Cells were then seeded in 24-well Ultra-low attachment plates (Corning) at a density of 1×10^4 cells per well. Four days later, fresh medium was added in each well. Seven days later, spheres were analyzed by the sphere diameter and the number of spheres larger than 50 μm (Axio Observer Z1, Zeiss). In relation to the diameter of the spheres, three representative fields per well were imaged, and diameters were measured using the AxioVision software (Zeiss): the three longest diameters per image field for each group were recorded. The distribution of the sphere diameters was plotted using the notched Box-and-Whisker plot originally invented by Tukey. […]

[9] = system: SW1353 cells; assay: Transwell invasion assay; assay type: cell-based, human; details: 10 μM TC-S7009 vs DMSO
Protocol: FIG. 5A is the results of Transwell invasion (n=3) assay using SW1353 cells treated with DMSO or 10 μM TC-S7009. Representative images were shown, the invaded cells were calculated on the random image fields and normalized to the cells treated with DMSO. Scale Bar=200 μm.
Transwell invasion assay. The invasion assay was performed using Transwell (BD Falcon, pore size, 8 μm, PET) in 24-well plates. Filters were coated with 20 μg of Geltrex (Thermo Fisher Scientific) in 20 μl of serum-free DMEM and dried for 4 h in a sterile environment. Prior to the invasion assay, SW1353 and OUMS-27 cells were starved for 12 h in serum-free DMEM. Immediately before seeding the cells, the dried transwells were rehydrated with 25 μl of serum-free DMEM for 1 h at 37° C. Starved cells were trypsinized, centrifuged, and resuspended in serum-free DMEM. Approximately 1×10^5 cells in 200 μl of serum-free DMEM were placed in each transwell and 2 ml of DMEM supplemented with 10% FBS was placed in each 24-well plate. The plates were incubated for 48 h at 37° C., fixed in 4% paraformaldehyde for 2 min, permeabilized in 100% methanol for 20 min, and stained with 0.1% crystal violet in 10% ethanol for 20 min. Cells on the upper side of the transwell were removed with cotton-tipped swabs. […] Image fields were randomly chosen, and invading cells were counted using the ImageJ software (National Institutes of Health).

[10] = system: HIF-2α; assay: siRNA knockdown of HIF-2α in SW1353 cells; assay type: cell-based, human; details: SW1353 cells transfected with siRNA
Protocol: Cell culture. Chondrosarcoma cell lines SW1353 and OUMS-27 were purchased from ATCC and JCRB Cell Bank, respectively, maintained in 3% O2 at 37° C., and cultured in DMEM (WelGENE Inc., LM001-05) supplemented with 10% FBS (Gibco, 26140079) and 1% antibiotics. For the selection of stable cell lines, 1×10^3 cells were seeded in 100 mm dishes and incubated for approximately two weeks until colonies became visible, and they were supplied with fresh media every three days. Visible colonies were individually isolated using cloning rings. Single colony-forming cells were trypsinized, seeded into 24-well plates, and gradually expanded to 100 mm dishes. Transfection was performed with METAFECTENE PRO (Biontex, T040) according to the manufacturer's protocol. All siRNAs were purchased from Bioneer. All cell lines were tested and authenticated using short-tandem repeat (STR) profiling by the Korean Cell Line Bank and were free of mycoplasma contamination. None of the cell line stocks used in this study was found in the database of commonly misidentified cell lines listed by ICLAC.
Microarray. SW1353 cells (3×10^5) were transfected with control, HIF1A, or EPAS1 siRNAs. Three biological replicates were used for each group. cDNA was synthesized using the GeneChip WT (Whole Transcript) Amplification kit as described by the manufacturer. […]

| Molecule | extraosseous outgrowth of primary tumor [1] | pulmonary (lung) metastasis [1] | apoptotic cells (Annexin-V and PI positive populations) [2] | migration ability [3] | matrix-degrading activity (gelatin degradation) [4] | transcriptional activity of HIF-2α (HRE reporter activity) [5] | clonogenicity (colony formation) [6] | cytotoxicity / cell viability [7] | sphere formation [8] | invasive phenotypes (transwell invasion) [9] | expression of HIF-2α at the cellular level [10] |
| --- | --- | --- | --- | --- | --- | --- | --- | --- | --- | --- | --- |
| N.N.[Cl][Pt][Cl] [Cisplatin, cisplatin] | mild-to-moderate reduction | mild-to-moderate reduction | mild increase |  |  |  |  |  |  |  |  |
| O=[N+]([O-])c1c(Nc2cc(F)cc(Cl)c2)ccc2nonc12 [TC-S7009, N-(3-Chloro-5-fluorophenyl)-4-nitro-2,1,3-benzoxadiazol-5-amine] | mild-to-moderate reduction | mild-to-moderate reduction | did not noticeably affect cell death | without affecting | effectively blocked | effectively abolished; also recorded: effectively blocks | effectively blocked | without any apparent cytotoxicity; also recorded: without affecting | effectively blocked | effectively blocked |  |
| EPAS1 siRNA: siRNA for HIF-2α, sense and antisense SEQ ID Nos: 3 and 4 with dTdT overhang (sense ACUACGUCCUGAGUGAGAUDTDT; antisense AUCUCACUCAGGACGUAGUDTDT; dTdT overhangs, chemistry not fully specified) |  |  |  |  |  |  |  |  |  |  | effectively suppress |
